According to patent US20110281949A1, “METHODS AND COMPOSITIONS FOR TREATING NEURONAL DAMAGE AND MODULATING TRANSIENT RECEPTOR POTENTIAL CHANNELS” (priority 2008, published 2011):
Entries after “also recorded” stand apart in the source; their conditions may differ. Where two headings read alike, the source gives them in different places.

What was measured:
closed head injury = experiment: Mouse model of closed head injury, Neurological Severity Score (NSS); assay type: in vivo; conditions: subcutaneous 0.751 μg/gr body weight 15 min after injury, up to 27 days
Text: Brain injury is known to disrupt the blood-brain barrier and to induce edema and release auto-destructive factors that produce delayed neuronal damage and neuronal cell death. An experimental model of […] (CHI) in the rat and mouse has been developed and studied mechanistically (Beni-Adani et al 2001; Chen et al 1996). In the present study, CHI was induced under ether anesthesia by allowing a metal rod (333 g) to fall over the exposed skull covering the left hemisphere in the midcornal plane of a 35-45 g Mouse. […] Neurobehavioral evaluations were performed over the next 27 d.
A Neurological Scoring System (NSS) was used to determine ability to perform 10 different behavioral tasks, involving motor ability, balance, and alertness of the mice (Table 4). One point is assigned for failing to perform each task; thus, a normal uninjured mouse scores 0. Injury severity is defined by initial NSS, which is evaluated 1 h post-CHI and referred to as “NSS1.” This value is also a reliable predictor of clinical outcome, with fatal or near-fatal injury corresponding to NSS1 of 7-8; moderate injury to NSS1 of 5-6, and mild injury to NSS1 of <4.

native TRPL channels = biological target: T1, native TRPL channels (Drosophila melanogaster, UniProt P48994); experiment: Light-induced current (LIC) in isolated ommatidia of trp^P343 mutant (native TRPL); assay type: cell-based; conditions: trp^P343 mutant photoreceptor cells, 500 μM
T1 construct: from tissue; host or cells: dissociated ommatidia of newly emerged white-eyed trpP343 flies
T1 sequence (P48994 1-1124): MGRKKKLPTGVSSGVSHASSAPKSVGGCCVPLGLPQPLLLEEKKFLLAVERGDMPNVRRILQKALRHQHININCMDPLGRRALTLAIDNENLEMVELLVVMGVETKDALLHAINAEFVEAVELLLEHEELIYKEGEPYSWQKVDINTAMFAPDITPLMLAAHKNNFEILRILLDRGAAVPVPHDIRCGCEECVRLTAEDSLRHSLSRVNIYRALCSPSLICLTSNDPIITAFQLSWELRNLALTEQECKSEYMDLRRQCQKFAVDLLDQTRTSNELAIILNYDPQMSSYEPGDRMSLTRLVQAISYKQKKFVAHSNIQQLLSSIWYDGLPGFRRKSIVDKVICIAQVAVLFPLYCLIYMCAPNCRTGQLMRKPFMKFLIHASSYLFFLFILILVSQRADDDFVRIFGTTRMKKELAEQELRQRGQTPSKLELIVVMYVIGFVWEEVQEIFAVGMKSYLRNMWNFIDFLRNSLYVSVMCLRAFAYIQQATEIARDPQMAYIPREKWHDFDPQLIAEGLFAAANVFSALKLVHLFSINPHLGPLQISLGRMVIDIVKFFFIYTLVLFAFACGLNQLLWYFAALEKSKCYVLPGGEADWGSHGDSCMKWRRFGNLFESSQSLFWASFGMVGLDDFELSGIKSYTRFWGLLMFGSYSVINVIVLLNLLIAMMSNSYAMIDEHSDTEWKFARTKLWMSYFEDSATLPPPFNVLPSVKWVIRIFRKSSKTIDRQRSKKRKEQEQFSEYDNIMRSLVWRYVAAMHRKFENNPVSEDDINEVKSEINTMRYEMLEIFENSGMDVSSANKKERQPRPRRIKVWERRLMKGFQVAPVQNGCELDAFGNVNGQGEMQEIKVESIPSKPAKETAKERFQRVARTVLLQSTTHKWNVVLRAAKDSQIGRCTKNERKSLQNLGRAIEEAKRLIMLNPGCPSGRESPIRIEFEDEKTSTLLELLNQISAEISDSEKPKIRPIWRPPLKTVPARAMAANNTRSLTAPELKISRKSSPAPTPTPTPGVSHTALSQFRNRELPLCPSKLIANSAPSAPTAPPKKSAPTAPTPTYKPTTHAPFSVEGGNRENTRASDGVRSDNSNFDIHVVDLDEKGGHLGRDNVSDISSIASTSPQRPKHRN
Text: Series resistance was compensated to ˜80%.
All solutions were titrated to pH 7.15. […] All solutions were titrated to pH 7.2. […] Chemicals were applied via the perfusion system.

TRP = biological target: T2, TRP (Drosophila melanogaster, UniProt P19334); experiment: Light-induced current (LIC) in photoreceptor cells of wild-type flies (native TRP)
T2 sequence (P19334 1-1275): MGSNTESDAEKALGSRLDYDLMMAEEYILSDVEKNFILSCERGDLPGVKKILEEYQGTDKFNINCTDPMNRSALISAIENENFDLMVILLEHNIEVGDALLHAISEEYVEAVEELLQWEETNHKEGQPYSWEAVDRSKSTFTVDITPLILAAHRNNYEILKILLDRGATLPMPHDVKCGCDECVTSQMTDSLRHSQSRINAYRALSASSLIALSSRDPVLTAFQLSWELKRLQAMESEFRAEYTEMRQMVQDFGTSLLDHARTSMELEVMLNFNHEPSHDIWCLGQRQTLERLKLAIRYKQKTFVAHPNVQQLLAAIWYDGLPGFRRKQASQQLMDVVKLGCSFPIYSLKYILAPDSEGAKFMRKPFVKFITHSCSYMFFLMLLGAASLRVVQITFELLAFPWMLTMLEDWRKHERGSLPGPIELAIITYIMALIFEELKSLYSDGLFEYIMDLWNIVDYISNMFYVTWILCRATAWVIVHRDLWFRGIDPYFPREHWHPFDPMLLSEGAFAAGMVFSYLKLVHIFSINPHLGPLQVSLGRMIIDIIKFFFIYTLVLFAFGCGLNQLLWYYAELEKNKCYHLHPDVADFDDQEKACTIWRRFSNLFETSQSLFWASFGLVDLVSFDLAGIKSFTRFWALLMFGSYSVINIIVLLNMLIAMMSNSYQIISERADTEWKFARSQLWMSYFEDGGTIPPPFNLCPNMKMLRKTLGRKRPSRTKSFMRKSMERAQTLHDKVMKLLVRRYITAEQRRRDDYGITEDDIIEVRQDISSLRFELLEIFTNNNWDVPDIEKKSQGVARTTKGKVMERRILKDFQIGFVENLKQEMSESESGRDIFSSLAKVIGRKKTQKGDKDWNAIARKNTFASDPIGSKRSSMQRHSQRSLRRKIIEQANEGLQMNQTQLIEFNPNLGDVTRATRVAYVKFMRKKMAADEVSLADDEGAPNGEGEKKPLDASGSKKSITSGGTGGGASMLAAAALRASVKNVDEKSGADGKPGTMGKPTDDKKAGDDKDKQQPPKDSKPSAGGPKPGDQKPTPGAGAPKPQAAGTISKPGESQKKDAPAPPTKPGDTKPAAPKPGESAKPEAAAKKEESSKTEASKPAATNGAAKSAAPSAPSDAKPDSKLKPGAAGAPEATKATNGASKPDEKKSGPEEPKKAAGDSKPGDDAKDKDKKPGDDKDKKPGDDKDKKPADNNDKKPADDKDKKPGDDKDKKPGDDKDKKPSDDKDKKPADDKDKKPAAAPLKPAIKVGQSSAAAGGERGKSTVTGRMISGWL
Description: Drosophila white-eyed flies of the following strains were used: wt and trp^P343. Flies were raised at 24° C. in a 12 h light/dark cycle.
A tungsten trans-illumination light (12 V, 100 W halogen lamp, in conjunction with a Schott OG 590 orange edge filter and a KG3 heat filter) provided illumination for stimulation of the photoreceptors in all experiments. Stimulating light was applied via a condenser lens (Carl Zeiss Microlmaging, Inc.) and was attenuated by neutral density filters. The maximal luminous intensity of the unattenuated orange light at the level of the ommatidia was 3.2 mW/cm^2.
Dissociated Drosophila ommatidia were prepared from newly emerged flies (<1 h after eclosion) that were kept in the dark 12-18 h before the experiment. Whole-cell, patch-clamp recordings were performed as described in Peretz et al, 1994. Currents were recorded at 21° C. using borosilicate patch pipettes of 8-10 MO and an Axopatch 200B™ (Molecular Devices, Inc.) voltage-clamp amplifier. Voltage-clamp pulses were generated and data captured using a Digidata 1200™ interfaced to a computer running pClamp 8.0 software (Axon Instruments, Inc.). Currents were filtered using the 8-pole low pass Bessel filter of the patch-clamp amplifier at 5 kHz and sampled at 10 kHz. Series resistance was compensated to ˜80%. […]

TRPM8 = TRPM8 (Homo sapiens, UniProt Q7Z2W7); conditions: literature (Vogt-Eisele 2007); cited from earlier work
TRPV3 = conditions: literature; cited from earlier work
TRPM7 [1] = biological target: T3, TRPM7 (Mus musculus, UniProt Q923J1); experiment: Whole-cell patch clamp of TRPM7 expressed in HEK cells; assay type: cell-based, mammalian; set-up: expressed in transfected cells; host or cells: HEK / HEK293 cells, transient, TransIT reagent (Mirus); conditions: for Effect on TRPM7-mediated current: HEK cells expressing TRPM7, IX 500 μM
Description: Human embryonic kidney (HEK) cells were grown in 25 cm^2 flasks at 37° C. in Dulbecco's Modified Eagle's Medium (DMEM) (Beit Haemek biological industries, Israel) supplemented with 10% FBS, 1% pen-strep and 1% L-Glutamine. TRPM7 (GenBank accession number NM—021450; SEQ ID No: 19; provided by David Clapham) and pIRES-eGFP were transiently expressed using TransIT™ reagent (Mirus).
Cells were seeded on polylysine-coated plates at a confluence of 25%, 24-72 hours prior to the experiment. […] Whole-cell, patch-clamp recordings were performed as described (Parnas et al, 2007). Currents were recorded at room temperature using borosilicate patch pipettes of 5-8 MΩ and an Axopatch 1D (Molecular Devices, Inc.) voltage-clamp amplifier. Voltage-clamp pulses were generated and data captured using a Digidata 1322A interfaced to a computer running the pClamp 9.2 software (Axon Instruments, Inc.). Currents were filtered using the 8-pole low pass Bessel filter of the patch-clamp amplifier at 5 kHz and sampled at 20 kHz. To measure I-V curves with minimal distortions, only cells with low (<10 MΩ) series resistance were used, and series resistance was compensated to ˜80%.
For HEK cells, the extracellular solution contained in mM: 140 NaCl, 2.8 KCl, 2 CaCl2, 1 MgCl2, HEPES and 10 glucose. The intracellular solution contained in mM: 140 Cs-Aspartate, 8 NaCl, 10 EGTA and 10 HEPES. All solutions were titrated to pH 7.2. Cells were perfused via a BPS-8 valve control system (Scientific Instruments) at a rate of ˜30 chamber volumes per minute. Chemicals were applied via the perfusion system.

TRPL channels = biological target: T4, TRPL channels (Drosophila melanogaster, UniProt P48994); experiment: Whole-cell patch clamp of TRPL channels expressed in S2 cells; conditions: for Effect on current when TRPL channels were not expressed (control): S2 cells without TRPL expression; for Effect on current when TRPL channels were not expressed (control) / Effect on TRPL-mediated current: IX 500 μM, XVII 5 mM; for Effect on TRPL-mediated current: XIII 3 mM, XIV 1 mM, XII 2 mM, XV up to 5 mM, X 5 mM, XVI 5 mM, XI 10 mM; for TRPL Activation/Inhibition: TRPL expressed in S2 cells
T4 sequence (P48994 1-1124): T1 sequence (P48994 1-1124)
Description: Schneider 2 cells were grown in 25 cm^2 flasks at 25° C. in Schneider medium (Beit HaEmek biological industries, Israel) supplemented with 10% fetal bovine serum (FBS) and 1% pen-strep reagent.
24 hours prior to the experiment, 500 μM CuSO4 was added to the medium of the S2 cells to induce expression of the channels. […] Currents were recorded at room temperature using borosilicate patch pipettes of 5-8 MΩ and an Axopatch 1D (Molecular Devices, Inc.) voltage-clamp amplifier. […] Currents were filtered using the 8-pole low pass Bessel filter of the patch-clamp amplifier at 5 kHz and sampled at 20 kHz. To measure I-V curves with minimal distortions, only cells with low (<10 MΩ) series resistance were used, and series resistance was compensated to ˜80%.
For S2 cells, the extracellular solution contained in mM: 150 NaCl, 5 KCl, 4 MgCl2, 10 TES, 25 proline, 5 alanine and 0.5 EGTA. The intracellular solution contained in mM: 130 K-gluconate, 10 TES, 2 MgCl2, 4 Mg-ATP and 0.4 Na-GTP. […] All solutions were titrated to pH 7.2. Cells were perfused via a BPS-8 valve control system (Scientific Instruments) at a rate of ˜30 chamber volumes per minute. Chemicals were applied via the perfusion system.

TRPM7 [2] = conditions: 500 μM
TRPM7 [3] = biological target: T3, TRPM7; conditions: 500 μM
TRPM7 [4] = biological target: T3, TRPM7; experiment: cell-based; conditions: read-out: Inhibition of total presynaptic strength (S)
TRPA1 = TRPA1 (Homo sapiens, UniProt O75762); conditions: irreversible, by covalent modification; cited from earlier work
TRPA1, sequence (O75762 whole entry, species assumed): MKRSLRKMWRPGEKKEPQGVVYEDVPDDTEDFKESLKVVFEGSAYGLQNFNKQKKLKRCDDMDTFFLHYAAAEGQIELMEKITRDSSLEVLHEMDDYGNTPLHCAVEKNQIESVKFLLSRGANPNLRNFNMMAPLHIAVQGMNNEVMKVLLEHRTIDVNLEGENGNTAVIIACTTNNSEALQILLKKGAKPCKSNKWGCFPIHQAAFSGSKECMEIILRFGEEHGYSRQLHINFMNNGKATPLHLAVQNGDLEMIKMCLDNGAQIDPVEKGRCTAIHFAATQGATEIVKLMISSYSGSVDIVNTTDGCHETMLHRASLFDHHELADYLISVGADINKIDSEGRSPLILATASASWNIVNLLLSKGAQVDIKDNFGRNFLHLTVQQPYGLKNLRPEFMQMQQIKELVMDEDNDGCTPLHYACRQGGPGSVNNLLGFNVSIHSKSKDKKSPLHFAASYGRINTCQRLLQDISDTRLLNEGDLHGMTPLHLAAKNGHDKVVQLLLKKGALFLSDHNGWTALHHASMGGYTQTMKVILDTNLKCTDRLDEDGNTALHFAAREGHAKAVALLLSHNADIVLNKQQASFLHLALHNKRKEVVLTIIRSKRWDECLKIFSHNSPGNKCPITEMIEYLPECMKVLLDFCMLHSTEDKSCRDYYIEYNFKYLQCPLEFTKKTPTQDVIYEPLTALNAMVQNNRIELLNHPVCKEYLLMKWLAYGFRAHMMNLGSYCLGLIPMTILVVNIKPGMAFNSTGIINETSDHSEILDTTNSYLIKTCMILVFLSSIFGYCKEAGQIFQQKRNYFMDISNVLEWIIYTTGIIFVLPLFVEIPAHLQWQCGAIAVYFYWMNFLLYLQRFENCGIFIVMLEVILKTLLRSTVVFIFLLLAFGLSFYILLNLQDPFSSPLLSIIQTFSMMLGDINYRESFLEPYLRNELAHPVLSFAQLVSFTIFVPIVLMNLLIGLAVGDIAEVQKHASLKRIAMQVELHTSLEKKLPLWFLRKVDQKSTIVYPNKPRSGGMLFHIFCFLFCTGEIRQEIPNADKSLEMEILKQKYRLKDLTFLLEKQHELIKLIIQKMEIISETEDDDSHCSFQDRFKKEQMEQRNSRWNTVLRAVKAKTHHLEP

T3 sequence (Q923J1 whole entry): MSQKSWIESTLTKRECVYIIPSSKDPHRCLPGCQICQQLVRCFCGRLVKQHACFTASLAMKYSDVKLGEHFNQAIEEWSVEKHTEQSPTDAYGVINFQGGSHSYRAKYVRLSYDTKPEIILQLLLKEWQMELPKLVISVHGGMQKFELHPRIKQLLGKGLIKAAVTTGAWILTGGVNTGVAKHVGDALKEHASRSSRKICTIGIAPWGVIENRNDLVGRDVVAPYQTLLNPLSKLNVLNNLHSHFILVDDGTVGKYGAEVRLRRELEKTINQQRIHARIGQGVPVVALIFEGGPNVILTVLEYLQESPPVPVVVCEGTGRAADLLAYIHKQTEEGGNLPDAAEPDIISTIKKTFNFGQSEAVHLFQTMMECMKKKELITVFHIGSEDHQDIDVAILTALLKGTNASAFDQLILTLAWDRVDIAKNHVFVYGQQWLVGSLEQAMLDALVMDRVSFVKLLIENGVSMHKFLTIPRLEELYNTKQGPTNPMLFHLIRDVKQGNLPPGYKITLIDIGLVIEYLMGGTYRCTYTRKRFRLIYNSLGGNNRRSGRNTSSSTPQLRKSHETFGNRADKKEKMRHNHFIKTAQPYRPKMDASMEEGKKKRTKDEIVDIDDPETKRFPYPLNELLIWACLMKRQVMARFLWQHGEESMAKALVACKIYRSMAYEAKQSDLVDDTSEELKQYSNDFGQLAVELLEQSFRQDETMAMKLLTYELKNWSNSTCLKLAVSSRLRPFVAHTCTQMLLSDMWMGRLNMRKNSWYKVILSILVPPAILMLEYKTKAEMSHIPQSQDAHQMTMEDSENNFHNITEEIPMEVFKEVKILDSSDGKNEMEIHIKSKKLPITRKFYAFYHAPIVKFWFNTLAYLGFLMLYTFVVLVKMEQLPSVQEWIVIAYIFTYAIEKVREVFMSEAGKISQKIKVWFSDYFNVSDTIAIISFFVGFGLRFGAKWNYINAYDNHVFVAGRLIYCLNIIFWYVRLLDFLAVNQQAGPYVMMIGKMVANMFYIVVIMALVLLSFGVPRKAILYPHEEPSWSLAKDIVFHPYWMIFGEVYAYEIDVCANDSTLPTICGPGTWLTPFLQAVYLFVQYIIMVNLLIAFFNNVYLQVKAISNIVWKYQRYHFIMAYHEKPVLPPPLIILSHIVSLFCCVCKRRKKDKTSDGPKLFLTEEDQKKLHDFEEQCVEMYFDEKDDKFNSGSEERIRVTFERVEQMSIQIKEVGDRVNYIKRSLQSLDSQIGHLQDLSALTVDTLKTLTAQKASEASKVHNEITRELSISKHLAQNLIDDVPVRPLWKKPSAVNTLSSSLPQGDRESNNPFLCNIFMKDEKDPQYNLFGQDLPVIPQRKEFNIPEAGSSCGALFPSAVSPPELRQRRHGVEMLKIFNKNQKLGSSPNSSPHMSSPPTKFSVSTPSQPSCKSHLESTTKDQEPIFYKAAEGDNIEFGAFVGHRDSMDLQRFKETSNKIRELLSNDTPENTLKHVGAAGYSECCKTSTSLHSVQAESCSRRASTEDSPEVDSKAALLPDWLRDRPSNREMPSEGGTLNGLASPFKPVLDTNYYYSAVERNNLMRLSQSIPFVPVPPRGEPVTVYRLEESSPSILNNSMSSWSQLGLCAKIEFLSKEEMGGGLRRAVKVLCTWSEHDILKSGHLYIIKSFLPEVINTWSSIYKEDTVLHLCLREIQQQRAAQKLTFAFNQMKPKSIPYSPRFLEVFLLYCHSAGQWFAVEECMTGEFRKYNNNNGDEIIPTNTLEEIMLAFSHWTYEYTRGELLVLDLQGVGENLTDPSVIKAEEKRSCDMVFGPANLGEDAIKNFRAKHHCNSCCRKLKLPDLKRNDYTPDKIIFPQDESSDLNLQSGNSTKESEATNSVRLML
TRPM8, sequence (Q7Z2W7 whole entry, species assumed): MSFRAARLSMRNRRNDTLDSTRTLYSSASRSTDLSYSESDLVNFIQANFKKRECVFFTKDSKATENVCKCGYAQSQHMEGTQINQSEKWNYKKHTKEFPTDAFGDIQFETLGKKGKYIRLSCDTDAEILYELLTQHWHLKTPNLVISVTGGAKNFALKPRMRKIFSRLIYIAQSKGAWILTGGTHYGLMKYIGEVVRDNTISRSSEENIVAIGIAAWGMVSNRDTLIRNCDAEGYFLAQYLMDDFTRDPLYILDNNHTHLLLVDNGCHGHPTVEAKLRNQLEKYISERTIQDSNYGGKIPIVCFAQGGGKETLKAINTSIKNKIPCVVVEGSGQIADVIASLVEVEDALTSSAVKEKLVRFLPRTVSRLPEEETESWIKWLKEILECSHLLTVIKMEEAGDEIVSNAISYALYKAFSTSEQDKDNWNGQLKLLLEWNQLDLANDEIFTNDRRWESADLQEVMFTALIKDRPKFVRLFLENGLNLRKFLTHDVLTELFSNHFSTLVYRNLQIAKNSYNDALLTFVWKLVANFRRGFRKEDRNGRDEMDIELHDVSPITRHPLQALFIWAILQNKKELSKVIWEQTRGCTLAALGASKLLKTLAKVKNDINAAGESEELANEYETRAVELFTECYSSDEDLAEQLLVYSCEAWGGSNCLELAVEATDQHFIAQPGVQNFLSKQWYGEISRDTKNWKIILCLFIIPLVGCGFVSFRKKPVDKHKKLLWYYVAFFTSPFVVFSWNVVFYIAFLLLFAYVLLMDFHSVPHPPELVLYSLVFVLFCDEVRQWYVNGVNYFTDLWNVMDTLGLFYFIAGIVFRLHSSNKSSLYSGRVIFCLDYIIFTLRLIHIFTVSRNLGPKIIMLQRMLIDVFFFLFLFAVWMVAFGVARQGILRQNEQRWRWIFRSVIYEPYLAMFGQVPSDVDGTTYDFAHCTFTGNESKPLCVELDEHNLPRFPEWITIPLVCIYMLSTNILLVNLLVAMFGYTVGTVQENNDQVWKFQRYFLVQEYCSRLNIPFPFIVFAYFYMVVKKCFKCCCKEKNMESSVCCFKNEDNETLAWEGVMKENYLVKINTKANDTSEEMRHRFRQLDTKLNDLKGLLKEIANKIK

Compound	TRPV3 activation (TRPV3)	Effect on TRPM7-mediated current (TRPM7 [1])	Reversibility of effect on TRPL channel (TRPL channels; S2 cells)	Effect on TRPL-mediated current (TRPL channels; S2 cells)	TRPL Activation/Inhibition (TRPL channels)	also measured
Cc1ccc(C(C)C)cc1O [Compound IX, 5-Isopropyl-2-methylphenol]	believed to activate TRPV3	Large and dose-dependent suppression of the current; also recorded: dramatic decrease in the TRPM7 mediated current	reversibly blocked	Large suppression of the current; also recorded: large decrease in the TRPL-dependent current	Inhibition	NSS recovery after closed head injury vs saline (closed head injury): NSS scores dropped significantly more; also recorded: significant protective effect from brain damage; Effect on light-induced current (LIC) amplitude, native TRPL (native TRPL channels): dramatically reduced LIC amplitude; also recorded: inhibits the native TRPL channels; Effect on light-induced current (LIC) of WT flies, native TRP (TRP): inhibited LIC of WT flies; Effect on TRPM8 (TRPM8): only a minimal effect on TRPM8; Reversibility of TRPM7 block (TRPM7 [1]; HEK cells): reversibly blocked activity; Effect in mock-transfected HEK293 cells (TRPM7 not expressed) (TRPM7 [1]; control): no effect was observed; Effect on current when TRPL channels were not expressed (control) (TRPL channels): no effect; ΔF median of boutons after compound application (TRPM7 [2]; control neurons, 88 before): 87 arbitrary units; Number of FM-detectable boutons after compound application (TRPM7 [2]; control neurons, 764 before): 845; Effect on presynaptic activity in control neurons (TRPM7 [2]; neurons lacking TRPM7-GFP): did not affect presynaptic activity; Effect on vesicle release in control neurons (TRPM7 [2]; neurons lacking TRPM7-GFP): did not alter vesicle release; Effect on vesicle release in TRPM7-GFP-expressing neurons (TRPM7 [3]; 30 APs@1 Hz): significantly decreased vesicle release; ΔF median of boutons after compound application (TRPM7 [3]; TRPM7-GFP-expressing neurons, 73 before): 75 arbitrary units; Number of FM-detectable boutons after compound application (TRPM7 [3]; TRPM7-GFP-expressing neurons, 578 before): 318; inhibition at 500 µM (TRPM7 [4]): 47 ± 3%
CC(C)[C@@H]1CC[C@@H](C)C[C@H]1O [Compound X, 2-Isopropyl-5-methylcyclohexanol]		inhibit TRPM7		large decrease in the TRPL-dependent current	Inhibition	IC50 (TRPL channels): 1810 ± 130 µM
CC12CCC(CC1=O)C2(C)C (centres unmarked) [Compound XI, 1,7,7-Trimethylbicyclo[2.2.1]heptan-2-one]	believed to activate TRPV3			activated the TRPL channel	Activation	
O=C/C=C/c1ccccc1 [Compound XII, trans-3-Phenyl-2-propenal]		inhibit TRPM7	reversible	inhibited TRPL activity; also recorded: decreased the TRPL-mediated current	Inhibition	TRPA1 activation (TRPA1): activated; IC50 (TRPL channels; read-out: IC50 of TRPL inhibition, S2 cells, whole-cell patch clamp): 1600 ± 300 µM
C=CCc1ccc(O)c(OC)c1 [Compound XIII, 2-Methoxy-4-(2-propenyl)phenol]	activate TRPV3			inhibited TRPL; also recorded: large decrease in the TRPL-dependent current	Inhibition	
Cc1ccc(C(C)C)c(O)c1 [Compound XIV, 2-Isopropyl-5-methylphenol]	activate TRPV3			inhibited TRPL; also recorded: large decrease in the TRPL-dependent current	Inhibition	
O=C(O)/C=C/c1ccc(O)c(O)c1 [Compound XV, 3,4-Dihydroxycinnamic acid]				did not block TRPL	No effect	
C=C(C)[C@@H]1CC=C(C)C(O)C1 (stereo partly drawn) [Compound XVI, (5R)-5-Isopropenyl-2-methyl-2-cyclohexenol]				large decrease in the TRPL-dependent current	Inhibition	IC50 (TRPL channels): 4220 ± 400 µM
CC1(C)C2CCC1(C)C(O)C2 [Compound XVII, endo-(1R)-1,7,7-Trimethylbicyclo[2.2.1]heptan-2-ol]	believed to activate TRPV3	inhibit TRPM7	completely reversible rapid activation	activated the TRPL channel; also recorded: activated the TRPL-mediated current	Activation	Effect on current when TRPL channels were not expressed (control) (TRPL channels): no effect
